One assay addresses T1, Human KRAS G12C (Homo sapiens, UniProt P01116, G12C).
T1 construct: purchased PerkinElmer
Kind of assay: KRAS G12C:GTP binding assay (HTRF kit). To be noted: 25° C., 1 h. On the procedure:
Test Example 4: KRAS G12C Binding Assay
In this method, the inhibitory effects of the compounds on the binding of KRAS G12C to GTP were assayed by a homogeneous time-resolved fluorescence (HTRF) technique using a KRAS G12C:GTP binding assay kit (PerkinElmer).
The experimental procedures were as follows (refer to the kit instructions for detailed test methods): the compounds of the present disclosure were each firstly dissolved in DMSO at a stock concentration of 20 mM. The stock solutions of the compounds were diluted in an equal gradient with DMSO, and then were subjected to second dilution with a buffer in the kit, so that the final concentrations of the test compounds in the reaction system were in a range of 0.02-5000 nM, and the final concentration of DMSO was 0.5%. […] After the incubation was completed, the fluorescence intensity of each well was measured at the excitation wavelength of 337 nm and the emission wavelengths of 620 nm and 665 nm with an EnVision microplate reader (PerkinElmer) in the HTRF mode, and Ratio values were calculated using the formula: Ratio=(665 nm/620 nm)×[…]. The inhibition rates of the compounds at each concentration were calculated by comparing the fluorescence intensity ratio with that of the control group. […]
On the technique in general: TR-FRET usually uses a lanthanide donor and a delayed reading to cut background.

In assay [1] the target is T2, KRAS G12V protein in SW620 cells (Homo sapiens, UniProt P01116, G12V).
T2 construct: endogenous in cells; host or cells: SW620
The experiment in a line: KRAS degradation assay (Western Blot) in SW620 cells. It counts as cell-based. To be noted: for DC50: 24 h; for Dmax: SW-620, 24 h. In short, it runs like this: (§1)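 After a 24 h treatment spanning 0.03–3000 nM, remaining KRAS protein is quantified by ECL immunoblot against a β-actin internal reference. Degradation is expressed relative to vehicle-treated cells and curve-fitted for DC50 and Dmax.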
(Immunoblotting shows a protein as a band on a membrane.)

In assay [2] the target is T3, KRAS WT (expanded) protein in MKN1 cells (Homo sapiens, UniProt P01116).
T3 construct: endogenous in cells; host or cells: MKN1 (MKN-1)
Kind of assay: KRAS degradation assay (Western Blot) in MKN1 cells. It counts as cell-based. To be noted: for DC50: 24 h; for Dmax: MKN-1, 24 h. In short, it runs like this: as §1

The IC50 is the point on the concentration scale where inhibition reaches its midpoint. A low value points to higher potency. The DC50 is the midpoint of the concentration-degradation curve. Higher therefore signals degradation only at high concentration. One may read the Dmax as the greatest extent of degradation seen. Lower therefore signals a partial loss of target.

T2 sequence (P01116 1-188 isoform P01116-2 G12V): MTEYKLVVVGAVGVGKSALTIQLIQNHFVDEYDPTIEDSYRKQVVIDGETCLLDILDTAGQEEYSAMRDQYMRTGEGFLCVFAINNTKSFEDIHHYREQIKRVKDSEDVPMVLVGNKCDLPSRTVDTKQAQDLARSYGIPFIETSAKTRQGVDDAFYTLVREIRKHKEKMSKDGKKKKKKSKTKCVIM
T3 sequence (P01116 1-188 isoform P01116-2): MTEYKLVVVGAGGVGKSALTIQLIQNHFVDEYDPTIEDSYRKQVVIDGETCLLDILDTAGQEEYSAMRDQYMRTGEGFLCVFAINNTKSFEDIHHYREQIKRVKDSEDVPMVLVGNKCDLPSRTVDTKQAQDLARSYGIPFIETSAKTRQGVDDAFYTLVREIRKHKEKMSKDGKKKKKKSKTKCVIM
T1 sequence (P01116 1-188 isoform P01116-2 G12C): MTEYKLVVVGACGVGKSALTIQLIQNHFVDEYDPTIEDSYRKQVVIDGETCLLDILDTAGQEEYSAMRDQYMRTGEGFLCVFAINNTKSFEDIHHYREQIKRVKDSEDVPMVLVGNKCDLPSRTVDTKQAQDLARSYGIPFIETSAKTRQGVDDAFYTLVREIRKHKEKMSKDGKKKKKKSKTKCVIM

Consider `C#Cc1c(F)ccc2cc(O)cc(-c3ncc4c(N5CCC[C@@](C)(O)C5)nc(OCC5(CN6CCN(CC7CCC8(CC7)CCN(C(=O)c7ccc(Cl)c(N9CCC(=O)NC9=O)c7)CC8)CC6)CC5)nc4c3F)c12` [Example 1, (R)-1-(2-chloro-5-(9-((4-((1-(((7-(8-ethynyl-7-fluoro-3-hydroxynaphthalen-1-yl)-8-fluoro-4-(3-hydroxy-3-methylpiperidin-1-yl)pyrido[4,3-d]pyrimidin-2-yl)oxy)methyl)cyclopropyl)methyl)piperazin-1-yl)methyl)-3-azaspiro[5.5]undecane-3-carbonyl)phenyl)dihydropyrimidine-2,4(1H,3H)-dione], for which the IC50 at Human KRAS G12C fell in the range of 500 to 1000 nM. In assay [1], this compound had a DC50 of 2.67 nM and a Dmax of 100%. In assay [2], this compound registered a DC50 of no more than 50 nM and a Dmax of 80 to 100%.
On Human KRAS G12C, `CCc1cccc2cc(O)cc(-c3ncc4c(N5CCC[C@@](C)(O)C5)nc(OCC5(CN6CCN(CC7CCC8(CC7)CCN(C(=O)c7ccc(Cl)c(N9CCC(=O)NC9=O)c7)CC8)CC6)CC5)nc4c3F)c12` [Example 3, (R)-1-(2-chloro-5-(9-((4-((1-(((7-(8-ethyl-3-hydroxynaphthalen-1-yl)-8-fluoro-4-(3-hydroxy-3-methylpiperidin-1-yl)pyrido[4,3-d]pyrimidin-2-yl)oxy)methyl)cyclopropyl)methyl)piperazin-1-yl)methyl)-3-azaspiro[5.5]undecane-3-carbonyl)phenyl)dihydropyrimidine-2,4(1H,3H)-dione] yielded an IC50 of no more than 500 nM. Also, in assay [2], the DC50 is no more than 50 nM and the Dmax fell in the range of 80 to 100%.
Regarding `C#Cc1c(F)ccc2cc(O)cc(-c3ncc4c(N5CCC[C@@](C)(O)C5)nc(OCC5(CN6CCN(CC7CCC8(CC7)CCN(C(=O)c7ccc(C)c(N9CCC(=O)NC9=O)c7)CC8)CC6)CC5)nc4c3F)c12` [Example 6, (R)-1-(5-(9-((4-((1-(((7-(8-ethynyl-7-fluoro-3-hydroxynaphthalen-1-yl)-8-fluoro-4-(3-hydroxy-3-methylpiperidin-1-yl)pyrido[4,3-d]pyrimidin-2-yl)oxy)methyl)cyclopropyl)methyl)piperazin-1-yl)methyl)-3-azaspiro[5.5]undecane-3-carbonyl)-2-methylphenyl)dihydropyrimidine-2,4(1H,3H)-dione], in assay [1], half-maximal degradation (DC50) was put at 3.56 nM and the Dmax came to 99.1%. Also, in assay [2], the DC50 was no more than 50 nM and the Dmax fell in the range of 80 to 100%.
In assay [1], `C#Cc1c(F)ccc2cc(O)cc(-c3ncc4c(N5CCC[C@@](C)(O)C5)nc(OCC5(CN6CCN(CC7CCC8(CC7)CCN(C(=O)c7ccc(OC)c(N9CCC(=O)NC9=O)c7)CC8)CC6)CC5)nc4c3F)c12` [Example 7, (R)-1-(5-(9-((4-((1-(((7-(8-ethynyl-7-fluoro-3-hydroxynaphthalen-1-yl)-8-fluoro-4-(3-hydroxy-3-methylpiperidin-1-yl)pyrido[4,3-d]pyrimidin-2-yl)oxy)methyl)cyclopropyl)methyl)piperazin-1-yl)methyl)-3-azaspiro[5.5]undecane-3-carbonyl)-2-methoxyphenyl)dihydropyrimidine-2,4(1H,3H)-dione] showed a DC50 of 0.62 nM and a Dmax of 100%. In assay [2], the DC50 is no more than 50 nM and the Dmax was 80 to 100%.

The values above are taken from US20260167622A1, “PAN-KRAS DEGRADING AGENT, AND PREPARATION METHOD THEREFOR AND USE THEREOF” (LEADINGTAC PHARMACEUTICAL (SHAOXING) CO., LTD., priority 2022, published 2026).
